# Literature values as cited in patent US20230018600A1, “CONTROLLED RELEASE FORMULATIONS COMPRISING DROTAVERINE OR SALT THEREOF” (priority 2020, published 2023).
# Experiments:
# [1] = not given; remark: listed apart in the source
# [2] = system: human isolated detrusor muscle; details: induced plateau of contraction
compound,measurement,setting,value
"CCOc1ccc(/C=C2\NCCc3cc(OCC)c(OCC)cc32)cc1OCC [Drotaverine, (Z)-1-(3,4-diethoxybenzylidene)-6,7-diethoxy-1,2,3,4-tetrahydroisoquinoline]",oral LD50,,> 1000 mg/Kg body weight
same,renal clearance as share of total plasma clearance,[1]; IR Drotaverine Tablets 80 mg,0.31+/−0.13%
same,onset of action,[1]; after oral administration of 80 mg strength IR tablets,≤ 12 min
same,drug absorption from small intestine,"[1]; oral, 80 mg IR tablets",~90%
same,"absolute bioavailability, range","[1]; oral, IR tablets 80 mg, subject-dependent range",24.5-91%
same,relaxation of human detrusor muscle contraction,[2],significant concentration-dependent relaxation
